Laboratory results taken from patent US11702449B2, “Angiogenesis-inhibiting peptide and composition for preventing and treating angiogenesis-related disease comprising same as active ingredient” (AVIXGEN INC., priority 2015, dated 2023).
Square brackets hold non-standard residues; d marks the D form. Peptide text beside a SMILES is read from it.

Experiments:
[1] = test system: human umbilical cord vascular endothelial cells (HUVECs); type: cell-based
Description: Migration analysis for human umbilical cord vascular endothelial cells (HUVECs) was carried out using a Transwell culture plate to which a polycarbonate filter (pore size: 8 μm) with a diameter of 6.5 mm was attached. A surface of the filter was coated with 10 μg of gelatin. Fresh M199 medium (1% fetal bovine serum) containing VEGF (10 ng/ml) was added into a lower compartment of the Transwell plate, HUVECs (1×10^6 cells/100 μl) which had reacted with 0.15 nM or 1.5 nM peptides at room temperature for 30 minutes were carefully transferred to an upper compartment of the plate. The resulting HUVECs were cultured in a CO2-constant temperature and humidity chamber for 4 hours, and the cells migrated under the Transwell filter were stained by H&E staining and quantified using an optical microscope.

HCT116 xenograft = experiment: Human colon cancer (HCT116) xenografted mouse model, tumor size and growth; type: in vivo
Description: Human colon cancer cells (HCT116, 1×10^7 cells/100 μl) were subcutaneously injected into the left side of a nude mouse (BALB/c nu/nu, 6 week old, male), and then when a tumor volume reached at least 50 to 70 mm^3 (approx. 7 days), physiological saline (negative control), RLYE (SEQ ID NO: 2) (1.0 mg/kg), R(D)LYE (SEQ ID NO: 6) (1.0 mg/kg) or Ac-RLYE (SEQ ID NO: 1) (1.0 mg/kg; abnormal, experimental group) was intraperitoneally injected once a day. A VEGF neutralizing antibody, bevacizumab, was intraperitoneally injected at 2 mg/kg twice a week (positive control). A tumor size was two-dimensionally measured using calipers. A tumor volume (mm^3) was calculated by the formula: width^2×length×0.52.

[2] = test system: tumor vessels of HCT116 xenograft; experiment: Measurement of tumor angiogenesis (FITC-isolectin B4 staining); type: in vivo, mouse; conditions: FITC-isolectin B4 staining of tumor tissue
Description: Tumor tissue was fixed with 10% formalin, and inserted into paraffin. A slide was prepared using a tumor tissue section, immersed in xylene to remove paraffin, and rehydrated by stepwise treatment with 100%, 95%, 80%, and 70% ethanol. Afterward, the slide was washed with deionized water several times at room temperature. To inhibit the intracellular activity of a peroxidase, the tissue section was reacted in 0.3% hydrogen peroxide-containing methanol for 15 minutes, and washed with PBS three times. The tissue section was reacted in 3% goat serum-containing PBS for 2 hours at room temperature, and reacted with FITC-isolectin B4 ([…]; Vector Laboratories) for 1 hour. The tissue section was washed with PBS three times and then a permanent slide was prepared using a cryo-mount solution (OCT mouting medium, Tissue Tek, Sakura Finetek), and then tumor vessels were visualized using a fluorescence microscope.

[3] = Peptide stability analysis in human serum (HPLC); type: in vitro ADME; conditions: for half-life at 1 mg/mL: pH 7.4, human serum
Description: (§1) Serum was separated by centrifugation (tabletop centrifuge, 3000 rpm, 20 min) of blood obtained from a healthy person. The serum was filtrated using a filter (Millipore) with a pore size of […], and then 50 μl of the human serum was mixed with 100 μg of RLYE (SEQ ID NO: 2), R(D)LYE (SEQ ID NO: 6), RLYE-NH2 (SEQ ID NO: 3) or Ac-RLYE (SEQ ID NO: 1) (100 μg/50 PBS, pH 7.4), and incubated by time at a constant temperature of 37° C. A peptide concentration of the sample was calculated by a peak area after the sample was separated by C18 reverse phase high-performance liquid chromatography (HPLC; Vydac protein and peptide C18 column, 0.1% trifluoroacetate in H2O for equilibration, and 0.1% trifluoroacetate in acetonitrile for elution).

HUVECs = experiment: Tube formation of vascular endothelial cells on Matrigel (VEGF-induced); type: cell-based, human
Description: A degree of tube formation of HUVECs was determined using growth factor-reduced Matrigel. 250 μl of the Matrigel (10 mg protein/ml) was added into a 24-well plate to allow polymerization for 30 minutes at 37° C. HUVECs cultured in M199 (1% fetal bovine serum) medium for 6 hours were carefully transferred onto the Matrigel in the culture plate at a density of 2×10^5 cells/well, and VEGF (10 ng/ml) were cultured alone or with peptides (0.15 nM) at 37° C. for 20 hours. Meanwhile, peptides that were reacted in PBS or fresh human serum for 3 hours were also used. The degree of tube formation of HUVECs was visualized using an inverted phase-contrast microscope, and a length of the formed tube was measured and quantified by Image-Pro Plus version 4.5 (Media Cybernetics, San Diego, Calif.).

retinal vascular leakage = experiment: Streptozotocin (STZ)-induced diabetic retinopathy mouse model, retinal vascular leakage; type: in vivo; conditions: STZ diabetic mice
Description: A freshly prepared STZ solution (100 mM) in a citrate buffer (100 mM, pH 4.5) was intraperitoneally injected at 150 mg/kg into the mice, and to prevent hypoglycemic shock, 10% sucrose was sufficiently provided. After two days, blood glucose was measured using an Accu-Chek Performa blood glucose meter (Roche Diagnostics GmbH, Germany), and when non-fasting blood glucose within 1 to 2 weeks was maintained at 300 mg/dl or more, the mice were used as diabetic animal models. The diabetes-induced mice were anesthetized with 2% avertin, and 1 μl of a 1.5 mM EYLR (SEQ ID NO: 5), RLYE (SEQ ID NO: 2) or Ac-RLYE (SEQ ID NO: 1) solution was intravitreally injected. Here, the same amount of PBS was injected into the control group. The peptide was injected, and after 24 hours, 1 ml (1.25 mg) of FITC-dextran (250 kDa) was injected into the left ventricle of each mouse to allow circulation for approximately 5 minutes. The mice were euthanized by cervical dislocation, and the eyeballs were extracted and fixed in 4% paraformaldehyde at room temperature for 1 hour. The retina was isolated from the fixed eyeball to prepare a retinal flat mount, and vascular leakage was observed under a confocal microscope. Meanwhile, the fluorescence of FITC-dextran leaked from retinal vessels was measured using Fluoview software.

[4] = test system: choroidal neovascularization; experiment: Laser-induced choroidal neovascularization mouse model; type: in vivo
Description: To prepare a laser-induced choroidal neovascularization animal model, a Bruch membrane between a retinal layer and a choroidal layer was destroyed by irradiating the mouse retina with a diode laser at an intensity of 400 mW and a duration of 50 ms, and then choroidal neovascularization occurred over 14 days. The retinas of 6 week-old male C57BL/6 mice were irradiated with a laser under the above conditions, the formation of a lesion was confirmed through a safety inspection on day 10, and 1 μl of a 1.5 mM EYLR (SEQ ID NO: 5), RLYE (SEQ ID NO: 2) or Ac-RLYE (SEQ ID NO: 1) solution was intravitreally injected. Here, the same amount of saline was injected into the control group. After 4 days (14 days after the laser irradiation), an experiment for analyzing a therapeutic effect was carried out by extracting the eyeballs of the mice. The extracted eyeballs were fixed in 4% paraformaldehyde for 12 hours, and embedded in paraffin. Sections with a thickness of 4 μm were prepared from paraffin tissue, and subjected to H&E staining. Afterward, an image of a section with the largest choroidal neovascular membrane area was taken from each subject, and the area of the choroidal neovascular membrane was quantitatively analyzed using ImageJ program (NIH, Bethesda, Md., USA). In the saline-injected control group, the average of the choroidal neovascular areas was represented as 100%, and a therapeutic effect of each treatment group was analyzed. Meanwhile, 1 ml (1.25 mg) of FITC-dextran (250 kDa) was injected into the left ventricle one hour before extraction of the mouse eyeball to allow systemic perfusion. After extraction, the eyeball was fixed in 4% paraformaldehyde for 1 hour. Then, the cornea and the crystalline lens were cut off by scissors, the retina was carefully removed using forceps to prepare a complex of retina pigment epithelium/choroid/sclera tissues. The retina flat-mounted complex tissue was observed under a fluorescence microscope and photographed.

Peptide stability in PBS = type: physicochemical; conditions: incubated in PBS at 37° C.
Description: as §1
To evaluate RLYE (SEQ ID NO: 2) stability, an RLYE peptide (SEQ ID NO: 2) was added to each of PBS and human serum, and incubated by time at a constant temperature of 37° C.

[5] = 1 μl of 1.5 mM solution intravitreal, H&E area analysis

## CC(=O)N[C@@H](CCCNC(=N)N)C(=O)N[C@@H](CC(C)C)C(=O)N[C@@H](Cc1ccc(O)cc1)C(=O)N[C@@H](CCC(=O)O)C(N)=O [Ac-RLYE-NH2] (Ac-RLYE-NH2)
[1]
  IC50: 80.2 nM

## CC(=O)N[C@@H](CCCNC(=N)N)C(=O)N[C@@H](CC(C)C)C(=O)N[C@@H](Cc1ccc(O)cc1)C(=O)N[C@@H](CCC(=O)O)C(=O)O [Ac-RLYE] (Ac-RLYE-OH; C-terminus assumed)
HCT116 xenograft; 1.0 mg/kg/day intraperitoneal, HCT116 nude mouse
  anticancer effect compared with RLYE: higher than that of RLYE
HCT116 xenograft; 1.0 mg/kg/day intraperitoneal, once a day, HCT116 nude mouse
  effect on size and growth of tumor: inhibited the size and growth of a tumor
HCT116 xenograft; peptide 1.0 mg/kg/day i.p., bevacizumab 2.0 mg/kg twice a week
  anticancer effect compared with bevacizumab: a little lower than that of the positive control bevacizumab
[2]
  effect of inhibiting cancer angiogenesis compared with RLYE: higher than that of RLYE
[3]; 37° C.
  half-life at 1 mg/mL: 8.8 h
HUVECs; peptides pretreated with PBS for 3 hours
  inhibition of VEGF-induced tube formation: effectively inhibited
HUVECs; peptides pretreated with human serum for three hours
  inhibition of VEGF-induced tube formation: effectively inhibited
[1]
  IC50: 0.05 nM
Retinal vascular leakage; 1 μl of 1.5 mM solution intravitreal, 24 hours
  effect on retinal vascular leakage: effectively inhibited
Retinal vascular leakage; intravitreal
  inhibitory effect on retinal vascular leakage compared with RLYE: higher inhibitory effect on blood vascular leakage than RLYE
[4]; [5]
  choroidal neovascularization inhibition compared with RLYE: highly effective compared to RLYE
  effect on choroidal neovascularization: effectively reduced
[4]; FITC-dextran, retinal flat mount technique
  choroidal neovascularization inhibition compared with RLYE, retinal flat mount: higher effect of inhibiting choroidal neovascularization than RLYE

## CC(C)C[C@H](NC(=O)[C@H](N)CCCNC(=N)N)C(=O)N[C@@H](Cc1ccc(O)cc1)C(=O)N[C@@H](CCC(=O)O)C(=O)O [R(D)LYE] (H-[dR]LYE-OH; N-terminus and C-terminus assumed)
[3]; 37° C.
  half-life at 1 mg/mL: 7 h
[1]
  IC50: 0.06 nM

## CC(C)C[C@H](NC(=O)[C@@H](N)CCCNC(=N)N)C(=O)N[C@@H](Cc1ccc(O)cc1)C(=O)N[C@@H](CCC(=O)O)C(=O)O [RLYE, Arg-Leu-Tyr-Glu, reference compound] (H-RLYE-OH; N-terminus and C-terminus assumed)
[3]; albumin added, 37° C.
  RLYE degradation induced by albumin: did not induce
[3]; aminopeptidase B inhibitor bestatin added
  RLYE degradation by human serum with bestatin: effectively inhibited
[3]; 37° C.
  half-life at 1 mg/mL: 1.2 h
[1]
  IC50: 0.08 nM
Peptide stability in PBS
  degradation in PBS: did not occur

## CC(C)C[C@H](NC(=O)[C@@H](N)CCCNC(=N)N)C(=O)N[C@@H](Cc1ccc(O)cc1)C(=O)N[C@@H](CCC(=O)O)C(N)=O [RLYE-NH2] (H-RLYE-NH2; N-terminus assumed)
[3]; 37° C.
  half-life at 1 mg/mL: 1.3 h
[1]
  IC50: 0.11 nM

## EYLR: reverse-sequence of the RLYE peptide [reference compound]
[4]; [5]
  effect on choroidal neovascularization: had no change
